Results reported in US11072588B2, “Barbituric acid derivatives comprising cationic and lipophilic groups” (UNIVERSITETET I TROMSØ—NORGES ARKTISKE UNIVERSITET, priority 2017, dated 2021).
Values after ≈ are worked out from the molar mass of the structure shown.

Tests used:
K. pneumoniae 50667959 = experiment: MIC, multi-resistant clinical isolate; format: cell-based, Klebsiella pneumoniae; settings: for MIC: Klebsiella pneumoniae, read-out: Antimicrobial activity (MIC); for selectivity index (EC50/MIC): RBC EC50 / MIC
K. pneumoniae K66-45 = experiment: MIC, multi-resistant clinical isolate; format: cell-based, Klebsiella pneumoniae; settings: for MIC: Klebsiella pneumoniae, K6645, read-out: Antimicrobial activity (MIC); for selectivity index (EC50/MIC): RBC EC50 / MIC, K. pneumoniae K66-45
human RBCs = experiment: Determination of haemolytic activity; format: cell-based
Outline: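 Heparinized fresh blood was washed in PBS, and RBCs were used at 1% v/v final with test compounds at 500–4 μM (DMSO ≤1%) for 1 h at 37 °C. Haemoglobin release was read at 545 nm and expressed relative to 1% Triton X-100 after PBS background correction. EC50 values are means of three independent experiments.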

In the case of `NCCCCN1C(=O)N(CCCCN)C(=O)C(Cc2cc(Br)cc(Br)c2)(Cc2cc(Br)cc(Br)c2)C1=O` [7(ii)], the MIC (K. pneumoniae 50667959) is reported as 16 µg/mL (≈ 20.9 µM), the “selectivity index (EC50/MIC)” value (K. pneumoniae 50667959) is reported as “(5)” and the MIC (K. pneumoniae K66-45) is reported as 16 µg/mL (≈ 20.9 µM). For the same compound, the “selectivity index (EC50/MIC)” value (K. pneumoniae K66-45) was “(5)”.
`CC(C)(C)c1cc(CC2(Cc3cc(C(C)(C)C)cc(C(C)(C)C)c3)C(=O)N(CCCCN)C(=O)N(CCCCN)C2=O)cc(C(C)(C)C)c1` [7(iii), 1,3-bis(4-aminobutyl)-5,5-bis(3,5-di-tert-butylbenzyl)-pyrimidin-2,4,6(1H,3H,5H)-trione] was tested, and the MIC (K. pneumoniae 50667959) was 8 µg/mL (≈ 11.9 µM), the “selectivity index (EC50/MIC)” value (K. pneumoniae 50667959) was “(<0.5)” and the MIC (K. pneumoniae K66-45) was 8 µg/mL (≈ 11.9 µM). For the same compound, the “selectivity index (EC50/MIC)” value (K. pneumoniae K66-45) was “(<0.5)”.
For `NCCCCN1C(=O)N(CCCCN)C(=O)C(Cc2ccc3ccccc3c2)(Cc2ccc3ccccc3c2)C1=O` [7(iv), 1,3-bis(4-aminobutyl)-5,5-bis(naphtalen-2-yl-methyl)-pyrimidin-2,4,6(1H,3H,5H)-trione], the MIC (K. pneumoniae 50667959) was > 32 µg/mL and the MIC (K. pneumoniae K66-45) was > 32 µg/mL.
In the case of `NCCCCN1C(=O)N(CCCCN)C(=O)C(Cc2ccc(F)c3ccccc23)(Cc2ccc(F)c3ccccc23)C1=O` [7(v), 1,3-bis(4-aminobutyl)-5,5-bis((4-fluoronaphtalen-1-yl)methyl)pyrimidin-2,4,6(1H,3H,5H)-trione], the MIC (K. pneumoniae 50667959) is reported as 32 µg/mL (≈ 54.5 µM), the “selectivity index (EC50/MIC)” value (K. pneumoniae 50667959) is reported as “(5)” and the MIC (K. pneumoniae K66-45) is reported as 32 µg/mL (≈ 54.5 µM). For the same compound, the “selectivity index (EC50/MIC)” value (K. pneumoniae K66-45) was “(5)”.
`NCCCCN1C(=O)N(CCCCN)C(=O)C(Cc2cc(C(F)(F)F)cc(C(F)(F)F)c2)(Cc2cc(C(F)(F)F)cc(C(F)(F)F)c2)C1=O` [7(vi)] was tested, and the MIC (K. pneumoniae 50667959) was 32 µg/mL (≈ 44.3 µM), the “selectivity index (EC50/MIC)” value (K. pneumoniae 50667959) was “(6)” and the MIC (K. pneumoniae K66-45) was 32 µg/mL (≈ 44.3 µM). The “selectivity index (EC50/MIC)” value (K. pneumoniae K66-45) was “(6)”.
`N=C(N)NCCCCN1C(=O)N(CCCCNC(=N)N)C(=O)C(Cc2cc(Br)cc(Br)c2)(Cc2cc(Br)cc(Br)c2)C1=O` [8(ii), 1,1′-(4,4′-(5,5-bis(3,5-dibromobenzyl)-2,4,6-trioxodihydropyrimidine-1,3(2H,4H)-diyl)bis(butane-4,1-diyl))diguanidine] was tested, and the MIC (K. pneumoniae 50667959) was 4 µg/mL (≈ 4.7 µM), the “selectivity index (EC50/MIC)” value (K. pneumoniae 50667959) was “(14)” and the MIC (K. pneumoniae K66-45) was 4 µg/mL (≈ 4.7 µM). The “selectivity index (EC50/MIC)” value (K. pneumoniae K66-45) was “(14)”.
With `CC(C)(C)c1cc(CC2(Cc3cc(C(C)(C)C)cc(C(C)(C)C)c3)C(=O)N(CCCCNC(=N)N)C(=O)N(CCCCNC(=N)N)C2=O)cc(C(C)(C)C)c1` [8(iii), 1,1′-(4,4′-(5,5-bis(3,5-di-tert-butylbenzyl)-2,4,6-trioxodihydropyrimidine-1,3(2H,4H)-diyl)bis(butane-4,1-diyl))-diguanidine] the MIC (K. pneumoniae 50667959) was 8 µg/mL (≈ 10.5 µM), the “selectivity index (EC50/MIC)” value (K. pneumoniae 50667959) was “(<0.5)” and the MIC (K. pneumoniae K66-45) was 8 µg/mL (≈ 10.5 µM). For the same compound, the “selectivity index (EC50/MIC)” value (K. pneumoniae K66-45) was “(<0.5)”.
For `N=C(N)NCCCCN1C(=O)N(CCCCNC(=N)N)C(=O)C(Cc2ccc3ccccc3c2)(Cc2ccc3ccccc3c2)C1=O` [8(iv), 1,1′-(4,4′-(5,5-bis(naphthalen-2-ylmethyl)-2,4,6-trioxodihydropyrimidine-1,3(2H,4H)-diyl)bis(butane-4,1-diyl))-diguanidine], the MIC (K. pneumoniae 50667959) was 16 µg/mL (≈ 25.2 µM), the “selectivity index (EC50/MIC)” value (K. pneumoniae 50667959) was “(8)” and the MIC (K. pneumoniae K66-45) was 16 µg/mL (≈ 25.2 µM). For the same compound, the “selectivity index (EC50/MIC)” value (K. pneumoniae K66-45) was “(8)”.
For `N=C(N)NCCCCN1C(=O)N(CCCCNC(=N)N)C(=O)C(Cc2ccc(F)c3ccccc23)(Cc2ccc(F)c3ccccc23)C1=O` [8(v), 1,1′-(4,4′-(5,5-bis((4-fluoronaphthalen-1-yl)methyl)-2,4,6-trioxodihydropyrimidine-1,3(2H,4H)-diyl)bis(butane-4,1-diyl))diguanidine], the MIC (K. pneumoniae 50667959) was 4 µg/mL (≈ 5.96 µM), the “selectivity index (EC50/MIC)” value (K. pneumoniae 50667959) was “(22)” and the MIC (K. pneumoniae K66-45) was 4 µg/mL (≈ 5.96 µM). For the same compound, the “selectivity index (EC50/MIC)” value (K. pneumoniae K66-45) was “(22)”.
With `CC(C)(C)c1ccc(CC2(Cc3ccc(C(C)(C)C)cc3)C(=O)N(CCCCN)C(=O)N(CCCCN)C2=O)cc1` [Compound 7(i), 1,3-bis(4-aminobutyl)-5,5-bis(4-tertbutylbenzyl) pyrimidin-2,4,6(1H,3H,5H)-trione] the MIC (K. pneumoniae 50667959) was 32 µg/mL (≈ 56.9 µM), the “selectivity index (EC50/MIC)” value (K. pneumoniae 50667959) was “(4)” and the MIC (K. pneumoniae K66-45) was 32 µg/mL (≈ 56.9 µM). For the same compound, the “selectivity index (EC50/MIC)” value (K. pneumoniae K66-45) was “(4)”.
With `CC(C)(C)c1ccc(CC2(Cc3ccc(C(C)(C)C)cc3)C(=O)N(CCCCNC(=N)N)C(=O)N(CCCCNC(=N)N)C2=O)cc1` [Compound 8(i), 1,1′-(4,4′-(5,5-bis(4-tert-butylbenzyl)-2,4,6-trioxodihydropyrimidine-1,3(2H,4H)-diyl)bis(butane-4,1-diyl))diguanidine] the MIC (K. pneumoniae 50667959) was 16 µg/mL (≈ 24.7 µM), the “selectivity index (EC50/MIC)” value (K. pneumoniae 50667959) was “(5)” and the MIC (K. pneumoniae K66-45) was 4 µg/mL (≈ 6.18 µM). The “selectivity index (EC50/MIC)” value (K. pneumoniae K66-45) was “(19)” and the “RBC toxicity compared to the amine 7(i)” value (human RBCs) was “twofold increased RBC toxicity”.
